Data taken from US20190365720A1, “Novel formulations of amidine substituted beta-lactam compounds on the basis of modified cyclodextrins and acidifying agents, their preparation and use as antimicrobial pharmaceutical compositions” (AiCuris Anti-Infective Cures GmbH, priority 2016, published 2019).
Values after ≈ are worked out from the molar mass of the structure shown. “Also recorded” adds a separate entry of the source.

Assays:
[1] = Calculated fraction of compound (I) bound to SBE-β-CD in blood plasma after i.v. administration; set-up: species or system mice; conditions: after i.v. administration at time zero
Protocol: On average, mice have 79 ml of blood per kg of body weight (see https://en.wikipedia.org/wiki/Blood_volume; Oct. 3, 2016). If the blood plasma is 55% of the total blood volume then mice have around 43 ml of plasma per kg of body weight. The dose was 25 mg/kg (0.037 mmoles/kg) of compound (I) and 156.5 mg/kg ([…]) of SBE-β-CD. After mixing with the blood plasma the initial plasma concentration should be 8.6.10^−4 M of compound (I) and 1.7.10^−3 M of SBE-β-CD.

[2] = pH-dependent solubility of compound (I); format: physicochemical; conditions: 25 °C
Protocol: The solubility profile of the API of a compound of formula (I) was measured at two different pH values (see […]): FIG. 23: pH solubility profile in pure water at 25° C.

[3] = Fraction bound to plasma protein in mice; format: in vitro ADME; conditions: mouse, read-out: Fraction bound to plasma protein (fp) (converted)
[4] = Solubility of compound (I) in selected solvent systems by UPLC; format: physicochemical; conditions: aqueous with cosolvent or surfactant or cyclodextrin, thermodynamic from solid, 25° C.
Protocol: To determine the solubility of a compound (I) in selected solvent systems in accordance with the invention, UPLC was used, and physicochemical properties such as pH and physical appearance were monitored. The solubility of compound (I) in solution was determined at 25° C. separately in following solvent systems at three time points (at 2 hours, at 6 hours and at 24 hours) in duplicates. 1) Hydroxypropyl-β-cyclodextrin solution (30% w/v) 2) Hydroxypropyl-β-cyclodextrin (30% w/v) solution containing 2% CA 3) Solvent mixture of PEG400 (40%)+2% CA (60%) To the vial for each time point 3 mL of individual solvent were added followed by addition of the weighed amount of compound (I) (100 mg). This system was kept for stirring on a magnetic stirrer at 700 rpm. At each time point, the solution was filtered through a […] syringe filter and analysed for the content of compound (I) using UPLC after suitable dilutions.

female rabbits = assay: Local tolerance after single intravenous infusion into the marginal ear vein; format: in vivo, rabbit
Protocol: The aim of this example was to test the local tolerance of a compound (I) containing aqueous injectable solution in accordance with the invention in female rabbits following a single intravenous infusion for 30 or 60 minutes. Each animal received 15 mL of a formulation containing 5 mg compound (I) as API per mL into the marginal vein of the right ear. Two groups of 9 female animals, each, were employed with infusion durations of 30 or 60 minutes per dose. In addition, a placebo solution as vehicle control, was administered in the same volume and duration on the left ear of each animal. 24, 72 and 96 hours after administration respectively 3 animals per group were sacrificed and the injection sites were examined macro- and microscopically. The application formulations were freshly prepared on the administration day. The compound (I) and the placebo were dissolved in the vehicles to the appropriate concentrations: 15 mL of WFI were added to 1 compound (I) drug product vial and shaken well. The solution volume expanded to approximately 17 mL. The final concentration was approximately 29 mg/mL. Withdraw 17 mL from 100 mL of lactated Ringer's solution. Then add the reconstituted solution (approx. 17 mL from step 1). Mix well. The final concentration was approximately […]. Species: rabbit; Strain: New Zealand White Selection of species: the rabbit is a commonly used species for local tolerance studies. Number and sex of animals: 18 female animals Age (at start of administration): approx. 3 months Body weight (at start of administration): 2.31 to 2.73 kg Acclimatisation period: at least 20 acclimatisation days; 4 test days Routes of administration: single intravenous infusion into the marginal vein of the ear. Selection of routes of administration: according to clinical use via intravenous route. The compound (I) solutions were administered to the right ear, and the placebo solutions were administered to the left ear of each animal. Local reactions were inspected macroscopically 1 […] and 96 h after injection. The reactions were scored on the basis of DRAIZE, Appraisal of the Safety of Chemicals in Food, Drugs and Cosmetics, Association of Food and Drug Officials of the United States, Austin, Tex., 1959. The animals scheduled for the respective dissection day were sacrificed with pentobarbitol injection into an ear vein (not used for infusion). All animals were subjected to gross examination including the opening of the cranial, thoracic and abdominal cavities and the examination of the major organs. Particular attention was paid to the appropriate injection sites (test and control items). All abnormalities were recorded. Tissue abnormalities would have been preserved in 10% neutral buffered formalin. Histopathological examination was performed on treated infusion sites (compound (I) and placebo, 2 sites per animal) plus an untreated adjacent site from all animals. Tissue samples were fixed in 10% buffered formalin. Paraffin sections (3 to 5 μm) were prepared, stained with hematoxylin-eosin, and examined histologically.

[5] = Physical / in-use stability of solutions at room temperature; format: physicochemical

Fraction of compound (I) free or bound to plasma proteins [1]: about 80% | Fraction of compound (I) bound to SBE-β-CD ([1]; 25 mg/kg with 156.5 mg/kg SBE-β-CD, plasma pH 7.4): about 22% | solubility ([2]; pure water (pH-adjusted, no cyclodextrin), pH 7.4, aqueous buffer): 1000 µg/mL (≈ 1.5 mM) | solubility ([2]; pure water, aqueous buffer, pH 4.0): 10000 µg/mL (≈ 15 mM) | fraction unbound [3]: 0.779 | solubility ([4]; 30% HP-β-CD plus 2% CA): 16200 µg/mL | solubility ([4]; hydroxypropyl-β-cyclodextrin solution (30% w/v), 30% HP-β-CD as sole excipient): 2700 µg/mL (≈ 4.04 mM) | Stability after reconstitution [5]: 6 h
SMILES: CC1(C)[C@H](NC(=O)/C(=N\O[C@@H](COc2ccc(C(=N)N[C@@H]3CCCNC3)cc2)C(=O)O)c2csc(N)n2)C(=O)N1OS(=O)(=O)O [compound (I)]
Body weight (female rabbits; 15 mL of 5 mg/mL i.v. infusion): No influence on the body weight | Clinical signs (female rabbits; 15 mL of 5 mg/mL i.v. infusion): No clinical signs of toxicity | Necropsy findings (female rabbits; 15 mL of 5 mg/mL i.v. infusion, 30 or 60 min): did not reveal any changes | Macroscopic changes at infusion sites (female rabbits; 15 mL of 5 mg/mL i.v. infusion, 30 or 60 min, inspected 1 h to 96 h): did not reveal any changes | Microscopic (histopathological) changes at infusion sites (female rabbits; 15 mL of 5 mg/mL i.v. infusion, 30 or 60 min, versus vehicle control sites): did not reveal any compound (I)-related changes; also recorded: did not cause any compound (I)-related histopathological changes | Compatibility following intravenous infusion (female rabbits; overall conclusion): very good compatibility
